Source: patent US20200055891A1, “NOVEL PHOSPHOTRIAZOLE MRNA 5'-END CAP ANALOGS, COMPOSITION COMPRISING THE SAME, RNA MOLECULE INCORPORATING THE SAME, USES THEREOF AND METHOD OF SYNTHESIZING RNA MOLECULE, PROTEIN OR PEPTIDE” (UNIWERSYTET WARSZAWSKI, priority 2016, published 2020)
Counter-ions that a name gives are not always drawn.

Columns and labels:
[1] = Hydrolysis in D2O seen in NMR spectra; format: physicochemical; details: dissolved in D2O just before NMR measurement; given if higher than 5%
Method: Some cap analogues hydrolyzed in D2O gradually. Although pure compounds (see HPLC profiles, Supporting Information 2) were dissolved in D2O just before measurements, the spectra indicated some level of hydrolysis. % of hydrolysis is provided along with compound characterization data, if higher than 5%.

[2] = test system: Rabbit Reticulocyte Lysate; experiment: Translation efficiency of capped firefly luciferase mRNA in Rabbit Reticulocyte Lysate System; format: biochemical; details: relative, m^7GpppG = 1
Method: The reaction was quenched by addition of 2 μl of 0.5 M EDTA pH 8.0 and purified with NucleoSpin RNA Clean-up XS kit (Macherey-Nagel) to afford luciferase-coding RNA strands capped with appropriate cap analogue.
For each capped luciferase-coding RNA four diluted solutions were prepared—3.0 ng/μl, 1.5 ng/μl, 0.75 ng/μl, 0.375 ng/μl. Translation studies were performed using Rabbit Reticulocyte Lysate System (Promega). 9 μl of a mixture containing Rabbit Reticulocyte Lysate (4 μl), Amino Acid Mixture Minus Leucine (0.05 μl of 1 mM solution), Amino Acid Mixture Minus Methionine (0.05 μl of 1 mM solution), potassium acetate (1.9 μl of 1 M solution), MgCl2 (0.4 μl of 25 mM solution) and 2.1 μl of water was incubated at 30° C. for 1 h after which 1 μl of appropriate luciferase-coding RNA solution was added and incubation of the reaction was continued at 37° C. for another hour. The reaction was stopped by freezing in liquid nitrogen.
Translation efficiency was determined using Luciferase Reporter System (Promega). The samples were defrosted just before the experiment. To every sample 50 μl of Luciferase Assay Reagent was added just before measurement of luminescence on Synergy H1 Microplate Reader (Bio Tek). The measurement were performed for every four samples independently due to low stability of luminescence signal. The results are presented on. FIG. 4 as proportions between regression coefficients of linear relationships between capped luciferase-coding RNA concentration in translation reaction (300 pg/μl, 150 pg/μl, 75 pg/μl, 37.5 pg/μl) and corresponding luminescence signal.

[3] = target: T1, SP6 RNA polymerase (Enterobacteria phage SP6, UniProt P06221); experiment: Capping efficiency: incorporation of cap analogues at the 5′ end of short transcripts by in vitro transcription; format: biochemical; details: 1.25 mM cap analogue, 0.125 mM GTP
T1 construct: purchased New England BioLabs
T1 sequence (P06221 1-874): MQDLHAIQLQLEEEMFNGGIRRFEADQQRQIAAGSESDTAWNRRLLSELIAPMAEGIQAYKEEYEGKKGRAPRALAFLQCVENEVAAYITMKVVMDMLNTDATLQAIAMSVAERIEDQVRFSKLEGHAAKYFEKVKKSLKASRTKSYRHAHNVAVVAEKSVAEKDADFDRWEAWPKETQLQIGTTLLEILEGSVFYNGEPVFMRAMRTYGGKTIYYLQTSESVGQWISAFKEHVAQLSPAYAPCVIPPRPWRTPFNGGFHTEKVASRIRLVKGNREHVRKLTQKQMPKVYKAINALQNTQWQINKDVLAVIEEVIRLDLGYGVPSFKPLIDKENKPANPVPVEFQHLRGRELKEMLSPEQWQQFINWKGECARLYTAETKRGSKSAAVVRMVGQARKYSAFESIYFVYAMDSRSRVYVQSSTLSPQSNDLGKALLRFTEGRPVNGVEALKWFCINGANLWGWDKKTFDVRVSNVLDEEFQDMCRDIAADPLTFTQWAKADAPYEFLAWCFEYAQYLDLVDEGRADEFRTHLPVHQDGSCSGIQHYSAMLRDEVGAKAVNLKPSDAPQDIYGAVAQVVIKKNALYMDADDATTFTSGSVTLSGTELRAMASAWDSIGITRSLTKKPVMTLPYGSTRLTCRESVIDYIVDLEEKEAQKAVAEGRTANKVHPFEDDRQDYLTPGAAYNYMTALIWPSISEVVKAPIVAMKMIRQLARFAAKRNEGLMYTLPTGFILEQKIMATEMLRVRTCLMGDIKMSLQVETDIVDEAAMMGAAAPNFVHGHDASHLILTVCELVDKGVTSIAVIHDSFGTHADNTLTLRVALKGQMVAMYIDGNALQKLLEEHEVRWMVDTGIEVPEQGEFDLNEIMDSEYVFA
Method: Prior to in vitro transcription annealing of a template was performed. DNA1 (SEQ ID NO: 1) and DNA2 (SEQ ID NO: 2) (20 μM each) were incubated in the presence of 4 mM Tris-HCl pH 8.0, 15 mM NaCl and 0.1 mM EDTA at 95° C. for 2 min and then at room temperature for 30 min. After 10-fold dilution the mixture was directly used for in vitro transcription.
The reaction was quenched by addition of 2 μl of 0.5 M EDTA pH 8.0 and purified with RNA Clean&Concentrator-5 kit (Zymo Research) to afford capped RNA1 (SEQ ID NO: 4) strands.
To reduce heterogeneity, each capped RNA1 (11.42 ng/μl, ca. 1 μM) was incubated in presence of 50 mM Tris-HCl pH 8.0, 50 mM MgCl2, RiboLock RNase Inhibitor (ThermoFisher Scientific) (2.0 U/μl) and DNA3 (SEQ ID NO: 3) (1 μM) at 37° C. for 1 h to afford RNA2 (SEQ ID NO: 5).^44 The reaction was stopped by freezing in liquid nitrogen and directly analyzed by PAGE (FIG. 3).
Relative bands intensity was determined using CLIQS v1.0 program.

[4] = Stability studies in buffers pH 3-9, RP HPLC; format: physicochemical; details: room temperature; for % of remaining cap, Bufor pH 7, 4 h / % of remaining cap, Bufor pH 7, 24 h: 0.1 M HEPES pH 7.0, 20 μM; for % of remaining cap, Bufor pH 5, 4 h / % of remaining cap, Bufor pH 5, 24 h: 0.1 M acetate buffer pH 5.0, 20 μM; for % of remaining cap, Bufor pH 9, 4 h / % of remaining cap, Bufor pH 9, 24 h: 0.1 M borate buffer pH 9.0, 20 μM; for % of remaining cap, Bufor pH 3, 4 h / % of remaining cap, Bufor pH 3, 24 h: 0.1 M formate buffer pH 3.0, 20 μM
Method: Analogues m2^7,2′-OGppp-triazole-C2H4NHppG, m2^7,2′-OGppp-triazole-C2H4OppG, m2^7,2′-OGppp-triazole-C2H4OpG, m2^7,2′-OGpp-triazole-C2H4OppG were incubated in sealed vials at 20 μM and at room temperature in four different buffers: 0.1 M formate buffer pH 3.0, 0.1 M acetate buffer pH 5.0, 0.1 M HEPES pH 7.0 and 0.1 M borate buffer pH 9.0. […] The starting compound peak area was determined for each time-point and % of remaining cap was calculated in reference to the time-point 0 h.

Compound | hydrolysis in D2O [1] | Translation efficiency [2] | Capping efficiency [3] | % of remaining cap, Bufor pH 7, 4 h [4] | % of remaining cap, Bufor pH 7, 24 h [4] | % of remaining cap, Bufor pH 5, 4 h [4] | % of remaining cap, Bufor pH 5, 24 h [4] | % of remaining cap, Bufor pH 9, 4 h [4] | % of remaining cap, Bufor pH 9, 24 h [4] | % of remaining cap, Bufor pH 3, 4 h [4] | % of remaining cap, Bufor pH 3, 24 h [4]
C[n+]1cn([C@@H]2O[C@H](COP(=O)(O)NCCn3cc(CP(=O)(O)OP(=O)([O-])OP(=O)(O)OC[C@H]4O[C@@H](n5cnc6c(=O)[nH]c(N)nc65)C(O)C4O)nn3)C(O)C2O)c2nc(N)[nH]c(=O)c21 (stereo partly shown) [m^7GpNHC2H4tCH2pppG, m^7GpNHC2H4-triazole-CH2pppG] | 7% | 0.060 ± 0.004 | 62% |  |  |  |  |  |  |  | 
COC1C(O)[C@@H](COP(=O)(O)OP(=O)(O)OP(=O)([O-])c2cn(CCNP(=O)(O)OP(=O)(O)OC[C@H]3O[C@@H](n4cnc5c(=O)[nH]c(N)nc54)C(O)C3O)nn2)O[C@H]1n1c[n+](C)c2c(=O)[nH]c(N)nc21 (stereo partly shown) [m2^7,2′-OGppptC2H4NHppG, m2^7,2′-OGppp-triazole-C2H4NHppG] |  | 2.226 ± 0.399 | 43.0% | 0% | 0% | 0% | 0% | 0.5% | 3.0% | 19.0% | 72.9%
C[n+]1cn([C@@H]2O[C@H](COP(=O)(O)OP(=O)(O)CCc3cn(CCNP(=O)(O)OP(=O)([O-])OC[C@H]4O[C@@H](n5cnc6c(=O)[nH]c(N)nc65)[C@@H](O)C4O)nn3)[C@H](O)C2O)c2nc(N)[nH]c(=O)c21 (stereo partly shown) [m^7GppC2H4tC2H4NHppG, m^7GppC2H4-triazole-C2H4NHppG] | 10% | 0.085 ± 0.017 | 48.8% |  |  |  |  |  |  |  | 
C[n+]1cn([C@@H]2O[C@H](COP(=O)(O)NCCn3cc(P(=O)([O-])OP(=O)(O)OC[C@H]4O[C@@H](n5cnc6c(=O)[nH]c(N)nc65)C(O)C4O)nn3)C(O)C2O)c2nc(N)[nH]c(=O)c21 (stereo partly shown) [m^7GpNHC2H4tppG, m^7GpNHC2H4-triazole-ppG] | 14% | 0.075 ± 0.009 | 57% |  |  |  |  |  |  |  | 
[N-]=[N+]=NCCNP(=O)(O)OP(=O)(O)OC[C@H]1O[C@@H](n2cnc3c(=O)[nH]c(N)nc32)[C@H](O)[C@@H]1O [GppNHC2H4N3, N-(2-azidoethyl) β-phosphoramidate guanosine diphosphate ammonium salt] | 15% |  |  |  |  |  |  |  |  |  | 
Nc1nc2c(ncn2[C@@H]2O[C@H](COP(=O)(O)OP(=O)(O)OP(=O)(O)OC[C@H]3O[C@@H](n4cnc5c(=O)[nH]c(N)nc54)[C@H](O)[C@@H]3O)[C@@H](O)[C@H]2O)c(=O)[nH]1 [GpppG, reference compound] |  | 0.058 ± 0.008 | 92% |  |  |  |  |  |  |  | 
C[n+]1cn([C@@H]2O[C@H](COP(=O)([O-])OP(=O)(O)Cc3cn(CCNP(=O)(O)OC[C@H]4O[C@@H](n5cnc6c(=O)[nH]c(N)nc65)C(O)C4O)nn3)C(O)C2O)c2nc(N)[nH]c(=O)c21 (stereo partly shown) [m^7GppCH2tC2H4NHpG, m^7GppCH2-triazole-C2H4NHpG] |  | 0.155 ± 0.019 | 54% |  |  |  |  |  |  |  | 
COC1C(O)[C@@H](COP(=O)(O)OP(=O)([O-])c2cn(CCOP(=O)(O)OP(=O)(O)OC[C@H]3O[C@@H](n4cnc5c(=O)[nH]c(N)nc54)C(O)C3O)nn2)O[C@H]1n1c[n+](C)c2c(=O)[nH]c(N)nc21 (stereo partly shown) [m2^7,2′-OGpptC2H4OppG, m2^7,2′-OGpp-triazole-C2H4OppG] |  | 1.675 ± 0.168 | 44.2% |  |  |  |  |  |  |  | 
COC1C(O)[C@@H](COP(=O)(O)OP(=O)(O)OP(=O)([O-])c2cn(CCOP(=O)(O)OC[C@H]3O[C@@H](n4cnc5c(=O)[nH]c(N)nc54)C(O)C3O)nn2)O[C@H]1n1c[n+](C)c2c(=O)[nH]c(N)nc21 (stereo partly shown) [m2^7,2′-OGppptC2H4OpG, m2^7,2′-OGppp-triazole-C2H4OpG] |  | 2.773 ± 0.293 | 47.6% | 0% | 0% | 0% | 0% | 0.1% | 1.2% | 0% | 0%
COC1C(O)[C@@H](COP(=O)(O)OP(=O)(O)OP(=O)([O-])c2cn(CCOP(=O)(O)OP(=O)(O)OC[C@H]3O[C@@H](n4cnc5c(=O)[nH]c(N)nc54)C(O)C3O)nn2)O[C@H]1n1c[n+](C)c2c(=O)[nH]c(N)nc21 (stereo partly shown) [m2^7,2′-OGppptC2H4OppG, m2^7,2′-OGppp-triazole-C2H4OppG] |  | 1.749 ± 0.263 | 38.0% | 0% | 0% | 0% | 0% |  |  | 0% | 0%
C[n+]1cn([C@@H]2O[C@H](COP(=O)(O)OP(=O)([O-])c3cn(CCNP(=O)(O)OC[C@H]4O[C@@H](n5cnc6c(=O)[nH]c(N)nc65)C(O)C4O)nn3)C(O)C2O)c2nc(N)[nH]c(=O)c21 (stereo partly shown) [m^7GpptC2H4NHpG, m^7Gpp-triazole-C2H4NHpG] |  | 0.50 ± 0.06 | 56.8% |  |  |  |  |  |  |  | 
